Columns and labels:
Rat [1] = experiment: concentration in plasma after dosing; conditions: dosed: Free Carbon disulfide, 10 mg/kg, iv, Male, F344
Rat [2] = experiment: concentration in plasma after dosing; conditions: dosed: Free Carbon disulfide, 50 mg/kg, iv, Male, F344
Rat [3] = experiment: concentration in plasma after dosing; conditions: dosed: Free Carbon disulfide, iv, Male, F344
Rat [4] = experiment: concentration in plasma after dosing; conditions: dosed: Free Carbon disulfide, 50 mg/kg, iv, Male, F344; remark: listed apart in the source
Rat [5] = experiment: concentration in plasma after dosing; conditions: dosed: Free Carbon disulfide, 10 mg/kg, iv, Male, F344; remark: listed apart in the source
Rat [6] = experiment: concentration in urine after dosing; conditions: dosed: dibromoacetic acid, 100 mg/kg, oral, Male, F344
Rat [7] = experiment: concentration in urine after dosing; conditions: dosed: dibromoacetic acid, 40 mg/kg, oral, Male, F344
Rat [8] = experiment: concentration in urine after dosing; conditions: dosed: dibromoacetic acid, oral, Male, F344
Rat [9] = experiment: concentration in urine after dosing; conditions: dosed: dibromoacetic acid, 40 mg/kg, oral, Male, F344; remark: listed apart in the source
Rat [10] = experiment: concentration in urine after dosing; conditions: dosed: dibromoacetic acid, 100 mg/kg, oral, Male, F344; remark: listed apart in the source

S=C=S [Free Carbon disulfide]
concentration in plasma [µg/g]
Conditions | 0.05 h | 1 h | 5 min | 10 min | 20 min | 40 min
Rat [1] | 5.8 | – | 7.9 | 1.4 | – | –
Rat [2] | 20.2 | 2 | 15.9 | 9.5 | 5.6 | 2.6
Rat [4] | 21.2 | 1.2 | 11 | 6.6 | 4.9 | 1.8
Rat [5] | 4.2 | – | 2.5 | 1.4 | 0.7 | –

concentration in plasma [µg/g], Rat [3]
Conditions | 0.05 h | 1 h | 2 h | 5 min | 10 min | 20 min | 40 min
10 mg/kg | 5 | – | – | 1.9 | 1.2 | 0.8 | –
50 mg/kg | 13.1 | 1.6 | 0.9 | 8.3 | 6.4 | 6.8 | 4.2

O=CC(=O)O [Glyoxylic acid]
concentration in urine [ng/mL]
Conditions | 0 h | 2 h | 4 h | 8 h | 24 h | 48 h
Rat [6] | 27400 | 20700 | 28600 | 31200 | 28800 | 47900
Rat [7] | 18400 | 11900 | – | – | 35600 | 37900
Rat [9] | 22300 | – | – | 20700 | 36100 | 34300
Rat [10] | 16100 | – | 25000 | – | 30900 | 34300

concentration in urine [ng/mL], Rat [8]
Conditions | 0 h | 4 h | 8 h | 24 h | 48 h
40 mg/kg | 29800 | 13200 | 27000 | 31800 | 26300
100 mg/kg | 20500 | 25600 | – | 30400 | 54800

From EPA's CvTdb concentration-time database
